Biological target: T1, mGluR2 receptor (metabotropic glutamate receptor 2) (Homo sapiens, UniProt Q14416)
T1 construct: expressed in transfected cells
Assay: mGluR2 Potentiator Screen, FLIPR, EC10-EC20 glutamate challenge
Assay type: cell-based
Outline: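 Potentiator assay in HEK cells stably expressing mGluR2 with Gα15, glutamine-depleted overnight, loaded with Fluo-4 plus probenecid and GPT/pyruvate to remove glutamate. Peak fluorescence ratio curve-fitted, with maximum set by on-plate standards.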

T1 sequence (Q14416 19-872, species assumed): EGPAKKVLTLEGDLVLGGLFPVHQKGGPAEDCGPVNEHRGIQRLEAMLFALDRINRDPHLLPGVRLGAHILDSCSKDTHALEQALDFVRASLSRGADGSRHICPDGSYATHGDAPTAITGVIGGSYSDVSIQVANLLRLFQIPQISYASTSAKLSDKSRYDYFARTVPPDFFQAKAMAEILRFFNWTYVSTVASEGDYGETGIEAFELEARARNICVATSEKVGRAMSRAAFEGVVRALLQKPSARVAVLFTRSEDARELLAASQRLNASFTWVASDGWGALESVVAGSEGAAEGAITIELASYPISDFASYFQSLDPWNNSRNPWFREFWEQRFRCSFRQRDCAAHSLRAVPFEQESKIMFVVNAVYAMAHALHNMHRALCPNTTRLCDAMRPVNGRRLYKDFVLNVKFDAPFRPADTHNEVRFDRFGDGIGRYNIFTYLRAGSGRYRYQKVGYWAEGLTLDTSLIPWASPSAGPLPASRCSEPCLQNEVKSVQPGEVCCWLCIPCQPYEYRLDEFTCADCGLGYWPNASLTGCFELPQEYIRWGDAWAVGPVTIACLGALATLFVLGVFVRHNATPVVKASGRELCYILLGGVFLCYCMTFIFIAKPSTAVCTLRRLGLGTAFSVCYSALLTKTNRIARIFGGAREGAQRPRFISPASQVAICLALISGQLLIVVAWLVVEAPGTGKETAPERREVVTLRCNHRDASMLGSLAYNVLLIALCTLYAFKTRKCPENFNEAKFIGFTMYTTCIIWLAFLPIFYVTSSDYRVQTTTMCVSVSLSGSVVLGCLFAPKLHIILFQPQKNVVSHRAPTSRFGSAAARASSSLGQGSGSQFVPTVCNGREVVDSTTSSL

Row | SMILES | EC50 [nM]
1 | CCCOc1ccc(Cl)cc1C1CCN(Cc2nc3cccnc3n2C)CC1 [compound 40] | 410
2 | CCOc1ccc(Cl)cc1C1CCN(Cc2nc3ncccc3n2C)CC1 [compound 41] | 4810
3 | CCOc1ccc(Cl)cc1C1CCN(Cc2nc3cccnc3n2C)CC1 [compound 42] | 501
4 | COc1ccc(Cl)cc1C1CCN(Cc2nc3ncccc3n2C)CC1 [compound 43] | 203
5 | COc1ccc(Cl)cc1C1CCN(Cc2nc3cccnc3n2C)CC1 [compound 44] | > 808
6 | C#CCOc1ccc(Cl)cc1C1CCN(Cc2nc3ncccc3n2C)CC1 [compound 45] | 72.6
7 | COc1ccccc1C1CCN(Cc2nc3cnccc3n2C)CC1 [compound 46] | 1450
8 | Cn1c(CN2CCC(c3ccc(C(F)(F)F)cc3)CC2)nc2cnccc21 [compound 47] | 168
9 | Cn1c(CN2CCC(c3ccccc3C(F)(F)F)CC2)nc2cnccc21 [compound 48] | 481
10 | Cn1c(CN2CCC(c3ccccc3F)CC2)nc2cnccc21 [compound 49] | 1050
11 | Cn1c(CN2CCC(c3ccccc3C(F)(F)F)CC2)nc2cccnc21 [compound 50] | 406
12 | COc1ccccc1C1CCN(Cc2nc3ncccc3n2C)CC1 [compound 51] | 1540
13 | Cn1c(CN2CCC(c3ccc(C(F)(F)F)cc3)CC2)nc2ncccc21 [compound 52] | 47.9
14 | Cn1c(CN2CCC(c3ccccc3C(F)(F)F)CC2)nc2ncccc21 [compound 53] | 105
15 | Cn1c(CN2CCC(c3ccccc3F)CC2)nc2ncccc21 [compound 54] | 1590
16 | COc1ccc(C(F)(F)F)cc1C1CCN(Cc2nc3ncccc3n2C)CC1 [compound 55] | 211
17 | COc1ccccc1[C@]1(C)CCN(Cc2nc3ncccc3n2C)C[C@@H]1C [compound 56] | 3820
18 | Cn1c(CN2CCC(c3cc(C(F)(F)F)ccc3F)CC2)nc2cnccc21 [compound 57] | 448
19 | Cn1c(CN2CCC(c3cc(C(F)(F)F)ccc3F)CC2)nc2ncccc21 [compound 58] | 5950

Row | SMILES | EC50 [nM]
20 | COc1ccccc1C1CCN(Cc2nc3cccnc3n2C)CC1C (centres unmarked) [compound 59] | 349
21 | COc1ccccc1C1CCN(Cc2nc3ncccc3n2C)CC1C (centres unmarked) [compound 60] | 302
22 | Cc1ccc(C)c(C2CCN(Cc3nc4ncccc4n3C)CC2)c1 [compound 61] | 290
23 | Cc1cccc(C2CCN(Cc3nc4ncccc4n3C)CC2)c1 [compound 62] | 617
24 | COc1cc(C(F)(F)F)ccc1C1CCN(Cc2nc3cnccc3n2C)CC1 [compound 63] | 834
25 | COc1cc(C(F)(F)F)ccc1C1CCN(Cc2nc3ncccc3n2C)CC1 [compound 64] | 11.1
26 | Cn1c(CN2CCC(c3cc(C(F)(F)F)cc(C(F)(F)F)c3)CC2)nc2ncccc21 [compound 65] | 144
27 | Cn1c(CN2CCC(c3ccc(F)cc3)CC2)nc2ncccc21 [compound 67] | 2360
28 | Cc1cc(F)ccc1C1CCN(Cc2nc3ncccc3n2C)CC1 [compound 69] | 353
29 | CC1CN(Cc2nc3ncccc3n2C)CCC1c1ccc(C(F)(F)F)cc1 (centres unmarked) [compound 70] | 111
30 | CC1CN(Cc2nc3ncccc3n2C)CCC1c1ccccc1F (centres unmarked) [compound 72] | 301
31 | Cn1c(CN2CCC(c3cc(F)ccc3F)CC2)nc2ncccc21 [compound 74] | 782
32 | Cn1c(CN2CCC(c3cc(Cl)ccc3F)CC2)nc2ncccc21 [compound 75] | 324
33 | Cn1c(CN2CCC(c3ccc(C(F)(F)F)cc3)C(C)(C)C2)nc2ncccc21 (centres unmarked) [compound 76] | 745
34 | Cn1c(CN2CCC(c3ccccc3C#N)CC2)nc2ncccc21 [compound 77] | > 5700
35 | Cn1c(CN2CCC(c3cccc(Cl)c3)CC2)nc2ncccc21 [compound 78] | 880
36 | Cn1c(CN2CCC(c3cccc(C(C)(C)C)c3)CC2)nc2ncccc21 [compound 79] | 124
37 | Cn1c(CN2CCC(c3ccc(Cl)cc3)CC2)nc2ncccc21 [compound 80] | > 9110
38 | COc1ccc(C2CCN(Cc3nc4ncccc4n3C)CC2)cc1 [compound 81] | 9770

— US20080312271A1, “AZABENZIMIDAZOLYL COMPOUNDS” (Pfizer Inc., priority 2006, published 2008)
